Assay [1] concerns 3xTg AD mice. Put plainly: Immunostaining with Aβ1-42 antibody of brain sections. In kind it is in vivo. As for the experimental part: FIGS. 8D and 8E show the result of immunostaining with Aβ1-42 antibody to detect amyloid deposition in the brain. Brain sections were selected at −2.2 mm posterior to bregma. Red dot indicated Aβ1-42 plaque accumulation. n=5 for B6 mice and 3xTg-60 mg/kg n-BP group. n=4 for 3xTg vehicle group. n=6 for […]. Scale bars represent 1 mm. *p-value<0.05, **p-value<0.01 (Student's t-test).
It was observed that AP accumulation was absent in the hippocampus of B6 mice but present in that of 3xTg AD mice. […] Specifically, immunostaining was used to detect Aβ1-42 accumulation in the hippocampus of 14-month-old 3xTg AD mice.

Assay [2] deals with miR-29b-2-5p expression in C6-C99 cells. Description: RT-qPCR of miR-29b-2-5p/miR-9-5p in C6-C99 cells. In kind it is cell-based. The following applies: 100 μM n-BP. As for the experimental part: Then, C6-C99 cells were used to explore the effect of 100 μM n-butylidenephthalide (n-BP) on the expressions of miR-29b-2-5p, PSEN1, and Aβ1-42. […] Also shown in FIGS. 4G to 4I are the results of using miR-29b-2-5p inhibitor to evaluate whether n-BP inhibited PSEN1 and Aβ1-42 expression through miR-29b-2-5p. Specifically, miR-29b-2-5p inhibitor was transfected into C6-C99 cells and examined the inhibitory effect of n-BP treatment on PSEN1 and Aβ1-42 expression. It was observed that the addition of the miR-29b-2-5p inhibitor to C6-C99 cells abolished the 100 μM n-BP induced decrease in PSEN1 and Aβ1-42 expression.

Assay [3] has as its system Aβ1-42. Description: ELISA of Aβ1-42 in the medium of Ts-21 iPSCs. In kind it is cell-based, human. The note with it: 100 μM n-BP. In general terms: ELISA stands for enzyme-linked immunosorbent assay.
Assay [4] deals with SH-SY5Y. Description: Aβ1-42 poisoning experiment in SH-SY5Y cells (MTT). In kind it is cell-based, human. The note with it: n-butylidenephthalide 100 μM, vitamin C 200 μM, alone or in combination, Aβ1-42 1 μM.
From the text: Then, the cell viability is detected by a cell survival test using (3-(4,5-dimethylthiazol-2-yl)-2,5-diphenyltetrazolium bromide (MTT) assay.
Assay [5] concerns miR-29b-2-5p and PSEN1 in the hippocampus of 3xTg AD mice. Description: RT-qPCR of miR-29b-2-5p and PSEN1 in the hippocampus of 3xTg AD mice. It counts as in vivo. The source says:
FIGS. 7E and 7F show the RT-qPCR analysis result of the expression levels of miR-29b-2-5p and PSEN1, respectively, in the hippocampus of 3xTg AD mice. n=—4.
AD-3xTg transgenic mice are an animal model used to study Alzheimer's disease. The transgenic mice are genetically engineered to carry point mutations of human amyloid precursor protein (APP), microtubule-associated protein tau (MAPT P301L) and type I presenilin protein (PSEN-1). The AD-3xTg transgenic mice carrying Alzheimer's mutation genes affect the brain and produce symptoms, mainly involving amyloid aggregation in the hippocampus and cerebral cortex. […] The 3xTg mice have β-amyloid accumulation in the brain and have problems related to cognition.

Assay [6] deals with 3xTg AD mice. Put plainly: 18F-FBB PET/CT of amyloid accumulation in the brain of 3xTg mice. In kind it is in vivo. The protocol:
(§1) N=4 for wild-type and 10 mg/kg donepezil-treated 3xTg mice. N=6 for vehicle-treated 3xTg mice, 60 mg/kg n-BP-treated 3xTg mice, and 120 mg/kg n-BP-treated 3xTg mice. *p-value<0.05, **p-value<0.01 (Student's t-test). […] After 4-12 months, the B6 (C57/BL6) control mice have no AP accumulation (Green color).
FIGS. 8B and 8C show the comparison of VOI-based 18F-florbetaben SUVR(CTX/CB) and SUVR (HIP/CB) between B6 mice, vehicle-treated 3xTg transgenic, and n-BP-treated mice (60 mg/kg) aged 6 and 12 months. n=4 for B6 mice. n=5 for 3xTg mice. SUVR; standard uptake value ratio, M; months, cerebellum: CB.
The accumulation of amyloid in brain tissues can be detected by using an amyloid tracking agent, 18F-Florbetaben (FBB). 18F-FBB positron emission tomography-computed tomography (PET/CT) was used to explore the effect of n-BP treatment on AP accumulation in the hippocampus and cortex. The accumulation of amyloid will appear red in the picture. The quantity and location of AP accumulation in the brains of mice were determined using the tracking reagent 18F-FBB from birth to 4 to 12 months of age.

Assay [7] deals with 3xTg AD mice. Put plainly: Morris water maze test in AD-3xTg mice. In kind it is in vivo. As for the experimental part: Red dot, starting point of the swim; green dot, end point of the swim.
as §1
The mice behavioral experiment using Morris water maze is a classical test to detect short-term memory and complex memory. Through its behavior, it can be determined whether there is a difference in memory after drug treatment. […] Two sessions were conducted on Day 1 as follows: (1) mice were placed in the swimming pool to adapt to the environment for a training duration of 120 seconds; (2) a hidden rest platform was added to the pool at a precise location in the northwest corner of the pool (blue diamond in the east; red circle in the west and yellow triangle in the south as shown in FIG. 7G) and the mice were allowed for to swim in the pool for a duration of another 120 seconds. If the rescue platform was not found by the mouse within the allocated time, the mouse was guided to the platform. The test for finding the rescue platform is carried out for the next four consecutive days, with each session lasting 90 seconds. The result is collected and analyzed.

The subject of assay [8] is neurons differentiated from trisomy 21-iPSC. Description: Aβ aggregation, phosphorylated Tau and miRNA in neurons differentiated from Ts21-iPSC. In kind it is cell-based, human. The source says: The neurons differentiated from the induced pluripotent stem cells produce hyperphosphorylated Tau (AT8). Excessive expression of AT8 affects winding signals and nutrient transmission of neurons; Aβ 1-42 is the main component of amyloid accumulation; microtubule-associated protein (microtubule-associated protein 2, MAP2) is a marker of neurons which mainly maintains the stability of dendritic neurons; tubulin (neuron-specific class III β-tubulin, TuJ1) is also a marker of neurons.
By genetic engineering, the four transcription factors Oct-4, Sox-2, c-Myc, and Klf-4 were delivered into adult cells and reverse-transcribed the cells into induced pluripotent stem cells (iPSC) carrying trisomy 21(Ts21) gene mutation.

[9] abbreviates: hippocampal gyrus of AD-3xTg mice, 120 mg/kg orally, vs untreated.
The mark [10] stands for this setting: hippocampus of 3xTg AD mice, control 100%.

“Also recorded” adds a separate entry of the source.

In the case of `CCCC=C1OC(=O)c2ccccc21` [n-BP, n-butylidenephthalide], the “Aβ accumulation in the hippocampus (Aβ1-42 antibody)” value in assay [1] (3xTg AD mice, either dose of n-BP (60 or 120 mg/kg)) was “significantly decreased”. Besides, the “Aβ1-42 accumulation in the brain (immunostaining)” value in assay [1] (14-month-old 3xTg AD mice, 120 mg n-BP/kg, vs vehicle) is listed as “significantly reduced”. The miR-29b-2-5p expression in assay [2] is 358.95%±24.74%. Moreover, the “Aβ1-42 expression (ELISA, medium)” value in assay [3] is given as “decrease”. Besides, in assay [4], the “Cell survival, protection against Aβ1-42 damage” value is “has an effect on increasing cell survival”. Further, in assay [5] (setting [9]), the “Gene expression level of PSEN-1” value was “decreased expression levels” and the “Gene expression level of miRNA-29b-2-5p” value is reported as “higher expression levels”. In assay [5] (setting [10]), the PSEN1 expression is 26.26%±27.75% and the miR-29b-2-5p expression was 188.58%±55.09%. In assay [6] (120 mg n-BP/kg, age 12 months vs age 6 months), the “Standardized uptake value ratio (SUVR) of FBB in the hippocampus and cortex” value is on record as “significantly lower”. Moreover, in assay [6] (3xTg AD mice, oral n-BP 60 or 120 mg/kg), the “Aβ accumulation in hippocampus and cortex (18F-FBB PET/CT)” value is “less AP accumulation; also recorded: low levels of amyloid accumulation”. For the same compound, in assay [7] (120 mg n-BP/kg vs 60 mg n-BP/kg), the Movement trajectory result is “shorter movement trajectory”. Besides, the “Locating and arriving at the resting platform” value in assay [7] (120 mg/kg n-BP, donepezil as positive control) was “able to quickly locate and arrive at the resting platform”. For the same compound, in assay [7] (60 and 120 mg n-BP/kg), the “Finding the rest platform after training” value is on record as “could find the rest platform after training”. For the same compound, the “Time required to find the platform” value in assay [7] (Day 5, 120 mg/kg n-BP, 10 mg donepezil/kg, vs untreated 3xTg mice) is recorded as “significantly lower”. Besides, in assay [8] (FIG. 5B), the Aβ aggregation entry is listed as “effectively reduces” and the “Phosphorylation of Tau protein” value is given as “effectively reduces”. For the same compound, the “Expression level of miRNA-29b-2-5p” value in assay [8] (FIG. 5C) is “increased significantly”. Besides, in assay [8] (FIG. 5D), the “Aggregation of Aβ 1-42 (protein levels)” value is on record as “decreased” and the “Protein expression of phosphorylated Tau protein” value was “decreased”.

The values above are taken from patent publication US20220096431A1, “PHARMACEUTICAL COMPOSITION AND METHOD FOR PREVENTING, TREATING AND DIAGNOSING A NEURODEGENERATIVE DISEASE” (BUDDHIST TZU CHI MEDICAL FOUNDATION, priority 2020, published 2022).
